Data set [1] concerns Mus musculus. Kind of data set: Toxicity in Sabra mouse assessed as morphological changes in neuronal cells at 1 mg/kg, ip administered on day 8, 9, 10, 11, 14, 18, 24 and 32 by hematoxylin and eosin staining-based histopathological analysis. Particulars: in vivo. The class given is organism-based. More on the design: dose 1 mg/kg, route intraperitoneal.
The test system of data set [2] is Mus musculus. Description: Enhancement of cognitive function in Sabra mouse at 10 mg/kg, ip administered on day 6 to 10 by eight-arm maze test relative to control. In kind it is functional, organism-based. More on the design: dose 10 mg/kg.
For data set [3], the system named is Mus musculus. Description: Antiobesity activity in Sabra mouse assessed as change in body weight at 1 mg/kg, ip administered on day 8, 9, 10, 11, 14, 18, 24 and 32 measured on day 30 relative to control. The class given is functional. The conditions noted are these: route intraperitoneal.
Data set [4] relates to Mus musculus. Kind of data set: Antiobesity activity in Sabra mouse assessed as change in food consumption at 1 mg/kg, ip administered on day 8, 9, 10, 11, 14, 18, 24 and 32 measured after 5 weeks relative to control. Particulars: route intraperitoneal. In kind it is functional.
Data set [5] has as its system Mus musculus. Kind of data set: Antiobesity activity in Sabra mouse assessed as reduction in body weight at 1 mg/kg, ip administered on day 0, 10, 11, 12, 24, 29 measured on day 26 relative to control. Particulars: route intraperitoneal. More on the design: scale not given: the % may be the effect or the level left. The class given is functional.

This is an account of results in ChEMBL document CHEMBL2321853, “Novel acylethanolamide derivatives that modulate body weight through enhancement of hypothalamic pro-opiomelanocortin (POMC) and/or decreased neuropeptide Y (NPY)” (J Med Chem, 2013).

Activity calls are given as the source filed them. No cut-off for these calls is given here.

On to `CCCCCCCC/C=C\CCCCCCCC(=O)N[C@H](CO)C(C)C`, for which the Activity entry in the data set on Mus musculus [1] is given as “Non-toxic”; with Mus musculus [3], -5.2%; with Mus musculus [4] it was 85.9%; in the data set with Mus musculus [5] it was -4.05%. Besides, the outcome in the data set with Mus musculus [2] was inactive.
